The values below come from patent US11382985B2, “Anti-tumour immune responses to modified self-epitopes” (Scancell Limited, priority 2015, dated 2022).

Square brackets hold non-standard residues; d marks the D form. Ends that are not written are not given here. Cit = NC(=O)NCCC[C@H](N)C(=O)O

One experiment deals with PBMCs. The experiment is described as follows: Luminex cytokine analysis of PBMC culture supernatants. The class given is cell-based, human. The method, then:
A three-step indirect procedure was used for the multiplexed Luminex assay (Invitrogen) for IgG antibodies to IL-10, IL-17, IFNy, TNFα, IL-2 & IL-4. Standard, control, and unknown sera were diluted 1:2 in 50% assay diluent buffer (Invitrogen) & 50% serum free RPMI. Serial standard dilutions were included in each assay. Each dilution of standard, control, and unknown sera was mixed with a set of coupled Luminex microspheres in 96-well filtration plates (Millipore Multiscreen; Millipore Corporation, Bedford, Mass.) and incubated for 2 hours at room temperature with shaking. Microspheres were collected by vacuum filtration and washed with PBST. Biotinylated detector antibody was added to each well for 1 hour at room temperature with shaking. Microspheres were collected by vacuum filtration and washed with PBST. Streptavidin conjugated R-phycoerythrin—was added to each well. Following a 30 minute incubation and a wash step, microspheres were resuspended in PBST, and read in a Biorad BioPlex Luminex analyzer equipped with an XY platform. Data acquisition and analysis performed with Luminex software (BioPlex Systems)

Another experiment concerns LLCDR4 tumour. The experiment can be described thus: Lewis lung carcinoma LLC2 with constitutive DR4 (LLCDR4) challenge. Format: in vivo, DR4 mice. Particulars: challenge four days before peptide immunisation; all controls died by day 48. The method, then: C57BL/6 mice (Charles River, UK), HLA-DR4 mice (Taconic, USA), HHDII/DR1 mice (Pasteur institute, France) and the HHD/HLA-DP4 transgenic strain of mouse as described in patent WO2013/017545 A1 (EMMA repository, France) were used, aged between 8 and 12 weeks, and cared for by the staff at Nottingham Trent University. All work was carried out under a Home Office project licence. Peptides were dissolved in PBS to 1 mg/ml and then emulsified (a series of dilutions) with different adjuvants: CpG and MPLA 6 μg/mouse of each (Invivogen, UK), Incomplete Freund's 50 μl/mouse (Sigma, UK), poly I:C 10 μg/mouse (Invivogen, UK), Imiquimod 25 μg/mouse (Invivogen, UK) and GMCSF 10 μg/mouse (Peprotech, UK). Peptides (25 μg/mouse) were injected subcutaneously at the base of the tail. DNA (1 μg/mouse) was coated onto 1.0 μm gold particles (BioRad, Hemel Hempstead, UK) using the manufacturer's instructions and administered intradermally by genegun (BioRad). Homspera (10 nM/mouse) (PeptideSynthetics, UK) was injected intradermally with genegun immunisation. […]
For tumour challenge experiments mice were challenged with 2.5×10^4 B16 DR4 cells or 1×10^6 LLC2/LLC2 DR4 cells, […] above. Tumour growth was monitored at 3-4 days intervals and mice were humanely euthanized once tumour reached ≥10 mm in diameter.

The test system of a further experiment is splenocytes. The experiment is described as follows: Peptide immunisation and ex vivo Elispot, DP4 mice. The class given is in vivo, HHD/HLA-DP4 transgenic mouse. Particulars: DP4 mice immunised with human 241-260cit.

With “VIGMDVAASEFF-CIT-SGKYDLD (VIGMDVAASEFF[Cit]SGKYDLD; listed as Homo sapiens) [Enolase 241cit]”, the “IL-17, Granzyme B and TNFα levels above media background” value in the experiment on PBMCs (Donor 4 supernatants) is on record as “higher”. In the experiment on PBMCs (Donor 4 supernatants at each time point), the “IFNγ and IL-10 levels above media background” value is on record as “citrullinated peptide specific responses which increased over time”. For the same substance, in the experiment with PBMCs (cultures on 3 donors), the IFNγ response result was “IFNγ responses” and the “IL-10, TNFα or IL-17 responses” value is reported as “low level”. Moreover, in the experiment on PBMCs (normal donors stimulated with peptide), the “IL-17 production by normal donors” value was “no IL-17 was produced”. The “mice surviving to day 58” value in the experiment with LLCDR4 tumour is listed as 40%. Besides, the “granzyme B release in response to the cit peptide” value in the experiment with splenocytes was “show granzyme B release”.
